Laboratory results taken from PubChem BioAssay AID1963965 (Molecular Pharmacology Branch, DTP, NCI, 2024).

Test system: 996289-038-R-J1-PDC spheroid viability
Experiment: Anticancer human tumor 996289-038-R-J1-PDC patient-derived colon adenocarcinoma cell line growth inhibition [PI3K]
Conditions: spheroids with HUVEC and MSC; for IC50: curve of first compound; for viability, T/C: stronger effect = lower value; active means viability on the fitted dose curve at most 10% of control; inactive means the rest
Summary of the method: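 Targeted small molecules plus PI3K inhibitors, half-log dose series from Cmax (default top 10 microM), were applied to heterotypic spheroids of cancer cells with HUVEC and MSCs. Viability indicated growth inhibition.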
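Further: spheroids exposed to compounds for seven days before viability read.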
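Wherever viability, T/C is given: luminescence used as a proxy for viable cell amount; percent viability relative to DMSO vehicle control as 100%.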

CC1(C)CCC(Nc2ncc(C(F)(F)F)c(-c3c[nH]c4c(P(C)(C)=O)c(C#N)ccc34)n2)CN1 (centres undefined) + CC(Nc1ccc2c(c1)OCCn1cc(N3C(=O)OCC3C(F)F)nc1-2)C(N)=O
6690 nM: IC50 (second compound 0.0316 µM)
6890 nM: IC50 (second compound 0.01 µM)
5850 nM: IC50 (second compound 0.1 µM)
4910 nM: IC50 (second compound 0.316 µM)
inactive: viability, T/C (second compound 0.00316 µM, first compound 0.0316 µM) 111% | viability, T/C (second compound 0.00316 µM, first compound 0.1 µM) 90.6% | viability, T/C (second compound 0.00316 µM, first compound 0.316 µM) 81% | viability, T/C (second compound 0.00316 µM, first compound 1 µM) 87.3% | viability, T/C (second compound 0.00316 µM, first compound 3.16 µM) 97.1% | viability, T/C (second compound 0.00316 µM, first compound 10 µM) 27.4% | viability, T/C (second compound 0.01 µM, first compound 0.0316 µM) 110% | viability, T/C (second compound 0.01 µM, first compound 0.1 µM) 93% | viability, T/C (second compound 0.01 µM, first compound 0.316 µM) 81.7% | viability, T/C (second compound 0.01 µM, first compound 1 µM) 94.1% | viability, T/C (second compound 0.01 µM, first compound 3.16 µM) 89.7% | viability, T/C (second compound 0.01 µM, first compound 10 µM) 31.1% | viability, T/C (second compound 0.0316 µM, first compound 0.0316 µM) 99.3% | viability, T/C (second compound 0.0316 µM, first compound 0.1 µM) 83.6% | viability, T/C (second compound 0.0316 µM, first compound 0.316 µM) 85.5% | viability, T/C (second compound 0.0316 µM, first compound 1 µM) 81.9% | viability, T/C (second compound 0.0316 µM, first compound 3.16 µM) 88.5% | viability, T/C (second compound 0.0316 µM, first compound 10 µM) 29.7% | viability, T/C (second compound 0.1 µM, first compound 0.0316 µM) 89% | viability, T/C (second compound 0.1 µM, first compound 0.1 µM) 76.3% | viability, T/C (second compound 0.1 µM, first compound 0.316 µM) 81.2% | viability, T/C (second compound 0.1 µM, first compound 1 µM) 82.2% | viability, T/C (second compound 0.1 µM, first compound 3.16 µM) 81% | viability, T/C (second compound 0.1 µM, first compound 10 µM) 22.9% | viability, T/C (second compound 0.316 µM, first compound 0.0316 µM) 73.9% | viability, T/C (second compound 0.316 µM, first compound 0.1 µM) 72% | viability, T/C (second compound 0.316 µM, first compound 0.316 µM) 76.6% | viability, T/C (second compound 0.316 µM, first compound 1 µM) 65.8% | viability, T/C (second compound 0.316 µM, first compound 3.16 µM) 69% | viability, T/C (second compound 0.316 µM, first compound 10 µM) 19.9% | viability, T/C (second compound 1 µM, first compound 0.0316 µM) 58.8% | viability, T/C (second compound 1 µM, first compound 0.1 µM) 73.8% | viability, T/C (second compound 1 µM, first compound 0.316 µM) 63.7% | viability, T/C (second compound 1 µM, first compound 1 µM) 63.3% | viability, T/C (second compound 1 µM, first compound 3.16 µM) 66.8% | viability, T/C (second compound 1 µM, first compound 10 µM) 19.9%
4660 nM: IC50 (second compound 1 µM)
6750 nM: IC50 (second compound 0.00316 µM)

Cn1cnc2c(F)c(Nc3ccc(Br)cc3Cl)c(C(=O)NOCCO)cc21 + CC(Nc1ncnc2nc[nH]c12)c1cc2cccc(Cl)c2c(=O)n1-c1ccccc1
114 nM: IC50 (second compound 10 µM)
161 nM: IC50 (second compound 3.16 µM)
218 nM: IC50 (second compound 1 µM)
166 nM: IC50 (second compound 0.1 µM)
inactive: viability, T/C (second compound 0.0316 µM, first compound 0.00949 µM) 102% | viability, T/C (second compound 0.0316 µM, first compound 0.03 µM) 77.2% | viability, T/C (second compound 0.0316 µM, first compound 0.0949 µM) 67.1% | viability, T/C (second compound 0.0316 µM, first compound 0.3 µM) 39.3% | viability, T/C (second compound 0.0316 µM, first compound 0.949 µM) 33.5% | viability, T/C (second compound 0.0316 µM, first compound 3 µM) 21.2% | viability, T/C (second compound 0.1 µM, first compound 0.00949 µM) 94.4% | viability, T/C (second compound 0.1 µM, first compound 0.03 µM) 77% | viability, T/C (second compound 0.1 µM, first compound 0.0949 µM) 54.9% | viability, T/C (second compound 0.1 µM, first compound 0.3 µM) 42.8% | viability, T/C (second compound 0.1 µM, first compound 0.949 µM) 33.5% | viability, T/C (second compound 0.1 µM, first compound 3 µM) 23.9% | viability, T/C (second compound 0.316 µM, first compound 0.00949 µM) 108% | viability, T/C (second compound 0.316 µM, first compound 0.03 µM) 79.7% | viability, T/C (second compound 0.316 µM, first compound 0.0949 µM) 62.8% | viability, T/C (second compound 0.316 µM, first compound 0.3 µM) 45.1% | viability, T/C (second compound 0.316 µM, first compound 0.949 µM) 36.4% | viability, T/C (second compound 0.316 µM, first compound 3 µM) 21.2% | viability, T/C (second compound 1 µM, first compound 0.00949 µM) 85.5% | viability, T/C (second compound 1 µM, first compound 0.03 µM) 69% | viability, T/C (second compound 1 µM, first compound 0.0949 µM) 63.6% | viability, T/C (second compound 1 µM, first compound 0.3 µM) 43.9% | viability, T/C (second compound 1 µM, first compound 0.949 µM) 33.6% | viability, T/C (second compound 1 µM, first compound 3 µM) 19.2% | viability, T/C (second compound 3.16 µM, first compound 0.00949 µM) 83.5% | viability, T/C (second compound 3.16 µM, first compound 0.03 µM) 73.7% | viability, T/C (second compound 3.16 µM, first compound 0.0949 µM) 58.9% | viability, T/C (second compound 3.16 µM, first compound 0.3 µM) 37.7% | viability, T/C (second compound 3.16 µM, first compound 0.949 µM) 31.1% | viability, T/C (second compound 3.16 µM, first compound 3 µM) 18.2% | viability, T/C (second compound 10 µM, first compound 0.00949 µM) 94.1% | viability, T/C (second compound 10 µM, first compound 0.03 µM) 68.3% | viability, T/C (second compound 10 µM, first compound 0.0949 µM) 53.9% | viability, T/C (second compound 10 µM, first compound 0.3 µM) 36.2% | viability, T/C (second compound 10 µM, first compound 0.949 µM) 27% | viability, T/C (second compound 10 µM, first compound 3 µM) 13.9%
225 nM: IC50 (second compound 0.316 µM)
207 nM: IC50 (second compound 0.0316 µM)
